Test results taken from patent US9493440B2, “Compounds inhibiting leucine-rich repeat kinase enzyme activity” (Merck Sharp & Dohme Corp., priority 2013, dated 2016).

Legend:
Assay type in all cases: biochemical
Conditions in all cases: 1 μM of the Example
CHEK2 (CHK2) = CHEK2 (CHK2) (Homo sapiens (Human), UniProt O96017); assay: Kinase selectivity, Z'-LYTE assay platform
CLK2 = CLK2 (Homo sapiens (Human), UniProt P49760); assay: Kinase selectivity, Z'-LYTE assay platform
AURKB (Aurora B) = AURKB (Aurora B) (Homo sapiens (Human), UniProt Q96GD4); assay: Kinase selectivity, Z'-LYTE assay platform
Chain of AURKB (Aurora B) (Q96GD4 whole entry): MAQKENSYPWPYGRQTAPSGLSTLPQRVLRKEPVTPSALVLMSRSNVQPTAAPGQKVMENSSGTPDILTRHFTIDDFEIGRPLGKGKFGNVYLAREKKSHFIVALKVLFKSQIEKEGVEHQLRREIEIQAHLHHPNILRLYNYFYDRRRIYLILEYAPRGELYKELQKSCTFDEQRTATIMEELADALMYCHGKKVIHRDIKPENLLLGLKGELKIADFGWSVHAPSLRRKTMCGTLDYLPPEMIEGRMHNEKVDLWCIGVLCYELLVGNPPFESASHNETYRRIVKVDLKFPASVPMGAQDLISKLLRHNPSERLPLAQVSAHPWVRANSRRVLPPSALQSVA

CDK1/cyclin B = CDK1/cyclin B (Homo sapiens (Human), UniProt P06493); assay: Kinase selectivity, Z'-LYTE assay platform
Chain of CDK1/cyclin B (P06493 whole entry): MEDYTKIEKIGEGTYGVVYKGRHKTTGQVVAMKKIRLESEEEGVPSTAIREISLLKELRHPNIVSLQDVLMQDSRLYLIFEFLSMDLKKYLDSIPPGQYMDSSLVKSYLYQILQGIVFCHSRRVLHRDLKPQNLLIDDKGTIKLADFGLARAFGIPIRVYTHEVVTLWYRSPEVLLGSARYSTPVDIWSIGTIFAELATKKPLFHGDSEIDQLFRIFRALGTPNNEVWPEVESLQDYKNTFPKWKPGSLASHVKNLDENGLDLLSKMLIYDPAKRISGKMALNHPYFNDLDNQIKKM
Chain of CDK1/cyclin B (P14635 whole entry partner): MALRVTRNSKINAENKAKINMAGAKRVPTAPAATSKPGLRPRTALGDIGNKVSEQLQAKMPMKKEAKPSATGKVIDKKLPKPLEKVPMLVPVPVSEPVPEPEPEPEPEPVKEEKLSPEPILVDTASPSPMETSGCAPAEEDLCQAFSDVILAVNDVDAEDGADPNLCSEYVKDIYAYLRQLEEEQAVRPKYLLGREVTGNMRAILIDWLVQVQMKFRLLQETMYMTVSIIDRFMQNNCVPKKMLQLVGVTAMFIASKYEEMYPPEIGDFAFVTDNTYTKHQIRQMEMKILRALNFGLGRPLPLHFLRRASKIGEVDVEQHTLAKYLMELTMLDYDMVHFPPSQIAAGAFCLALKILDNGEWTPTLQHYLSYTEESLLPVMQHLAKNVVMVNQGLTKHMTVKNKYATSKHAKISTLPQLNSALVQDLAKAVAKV

MAPK8 (JNK1) = MAPK8 (JNK1) (Homo sapiens (Human), UniProt P45983); assay: Kinase selectivity, Z'-LYTE assay platform
BRAF V599E = BRAF V599E (Homo sapiens (Human), UniProt P15056, V600E); assay: Kinase selectivity, Z'-LYTE assay platform
Chain of BRAF V599E (P15056 416-766 V600E limits assumed): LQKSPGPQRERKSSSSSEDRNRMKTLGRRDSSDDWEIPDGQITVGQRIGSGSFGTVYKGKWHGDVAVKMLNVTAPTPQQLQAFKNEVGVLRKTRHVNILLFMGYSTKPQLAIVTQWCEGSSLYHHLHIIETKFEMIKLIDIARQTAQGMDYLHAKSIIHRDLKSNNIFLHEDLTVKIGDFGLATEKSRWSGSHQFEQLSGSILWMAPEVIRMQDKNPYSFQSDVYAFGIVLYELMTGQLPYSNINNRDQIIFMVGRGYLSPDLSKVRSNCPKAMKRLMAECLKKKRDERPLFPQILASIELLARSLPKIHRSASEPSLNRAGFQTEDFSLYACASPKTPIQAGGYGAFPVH

JAK3 = JAK3 (Homo sapiens (Human), UniProt P52333); assay: Kinase selectivity, Z'-LYTE assay platform
Chain of JAK3 (P52333 whole entry): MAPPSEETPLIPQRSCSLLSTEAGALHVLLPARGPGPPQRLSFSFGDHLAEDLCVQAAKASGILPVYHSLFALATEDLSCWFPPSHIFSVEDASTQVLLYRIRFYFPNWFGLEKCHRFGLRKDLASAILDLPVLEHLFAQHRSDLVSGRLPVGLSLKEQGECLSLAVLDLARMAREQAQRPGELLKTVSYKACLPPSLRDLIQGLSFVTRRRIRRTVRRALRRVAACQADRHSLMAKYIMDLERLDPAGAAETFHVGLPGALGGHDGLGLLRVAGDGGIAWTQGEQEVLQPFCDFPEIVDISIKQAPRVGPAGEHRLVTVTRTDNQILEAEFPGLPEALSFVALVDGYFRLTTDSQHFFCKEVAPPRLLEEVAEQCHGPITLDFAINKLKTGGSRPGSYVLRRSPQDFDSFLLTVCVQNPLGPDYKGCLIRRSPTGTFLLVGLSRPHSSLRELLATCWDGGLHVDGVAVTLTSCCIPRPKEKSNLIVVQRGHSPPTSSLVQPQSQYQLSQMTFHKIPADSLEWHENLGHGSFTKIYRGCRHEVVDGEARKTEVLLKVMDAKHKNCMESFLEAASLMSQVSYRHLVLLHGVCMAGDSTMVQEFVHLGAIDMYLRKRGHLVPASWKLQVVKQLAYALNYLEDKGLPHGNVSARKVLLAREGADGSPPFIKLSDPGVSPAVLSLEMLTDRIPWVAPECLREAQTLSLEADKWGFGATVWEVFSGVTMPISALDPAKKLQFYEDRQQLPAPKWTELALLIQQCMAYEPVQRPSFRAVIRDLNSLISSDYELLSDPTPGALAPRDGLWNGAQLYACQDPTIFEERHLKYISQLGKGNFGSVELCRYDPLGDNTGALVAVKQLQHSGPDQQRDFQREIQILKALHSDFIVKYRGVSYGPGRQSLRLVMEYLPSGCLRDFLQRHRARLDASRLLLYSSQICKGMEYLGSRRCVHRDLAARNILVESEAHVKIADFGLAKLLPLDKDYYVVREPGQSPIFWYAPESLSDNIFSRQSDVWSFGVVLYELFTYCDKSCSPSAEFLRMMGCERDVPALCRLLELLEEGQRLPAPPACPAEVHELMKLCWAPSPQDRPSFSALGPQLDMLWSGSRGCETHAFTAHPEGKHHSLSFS

IRAK1 = IRAK1 (Homo sapiens (Human), UniProt P51617); assay: Kinase selectivity, Adapta assay platform
Chain of IRAK1 (P51617 whole entry): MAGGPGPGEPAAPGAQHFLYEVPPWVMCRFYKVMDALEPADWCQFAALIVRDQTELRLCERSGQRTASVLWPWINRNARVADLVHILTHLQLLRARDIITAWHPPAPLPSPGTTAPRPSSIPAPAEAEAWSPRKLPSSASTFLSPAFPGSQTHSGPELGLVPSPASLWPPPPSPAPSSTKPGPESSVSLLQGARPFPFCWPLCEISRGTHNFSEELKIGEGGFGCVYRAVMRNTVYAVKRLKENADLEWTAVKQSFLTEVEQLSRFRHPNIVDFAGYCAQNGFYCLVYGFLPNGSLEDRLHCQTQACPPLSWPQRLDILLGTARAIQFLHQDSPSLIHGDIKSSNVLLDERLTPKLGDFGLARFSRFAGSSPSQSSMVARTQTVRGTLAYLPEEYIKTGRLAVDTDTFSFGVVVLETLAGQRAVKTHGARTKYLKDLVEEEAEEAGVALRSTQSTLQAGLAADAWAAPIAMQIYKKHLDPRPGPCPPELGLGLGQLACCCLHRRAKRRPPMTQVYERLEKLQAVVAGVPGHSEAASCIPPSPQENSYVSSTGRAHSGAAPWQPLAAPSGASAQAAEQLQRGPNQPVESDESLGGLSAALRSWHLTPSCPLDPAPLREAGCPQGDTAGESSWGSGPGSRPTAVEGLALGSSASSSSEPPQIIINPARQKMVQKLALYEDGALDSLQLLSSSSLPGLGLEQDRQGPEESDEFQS

MAPK1 (ERK2) = MAPK1 (ERK2) (Homo sapiens (Human), UniProt P28482); assay: Kinase selectivity, Z'-LYTE assay platform
Chain of MAPK1 (ERK2) (P28482 whole entry): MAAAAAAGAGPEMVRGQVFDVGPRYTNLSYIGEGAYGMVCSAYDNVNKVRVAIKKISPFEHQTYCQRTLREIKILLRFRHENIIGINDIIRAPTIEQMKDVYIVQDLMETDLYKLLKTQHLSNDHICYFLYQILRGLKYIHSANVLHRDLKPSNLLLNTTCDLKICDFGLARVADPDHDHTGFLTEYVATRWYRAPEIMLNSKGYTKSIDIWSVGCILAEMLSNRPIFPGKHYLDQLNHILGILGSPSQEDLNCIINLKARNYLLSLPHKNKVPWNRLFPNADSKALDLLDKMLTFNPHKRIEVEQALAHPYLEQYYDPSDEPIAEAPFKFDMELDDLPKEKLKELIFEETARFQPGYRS

DYRK1A = DYRK1A (Homo sapiens (Human), UniProt Q13627); assay: Kinase selectivity, Z'-LYTE assay platform

Chain of CLK2 (P49760 whole entry): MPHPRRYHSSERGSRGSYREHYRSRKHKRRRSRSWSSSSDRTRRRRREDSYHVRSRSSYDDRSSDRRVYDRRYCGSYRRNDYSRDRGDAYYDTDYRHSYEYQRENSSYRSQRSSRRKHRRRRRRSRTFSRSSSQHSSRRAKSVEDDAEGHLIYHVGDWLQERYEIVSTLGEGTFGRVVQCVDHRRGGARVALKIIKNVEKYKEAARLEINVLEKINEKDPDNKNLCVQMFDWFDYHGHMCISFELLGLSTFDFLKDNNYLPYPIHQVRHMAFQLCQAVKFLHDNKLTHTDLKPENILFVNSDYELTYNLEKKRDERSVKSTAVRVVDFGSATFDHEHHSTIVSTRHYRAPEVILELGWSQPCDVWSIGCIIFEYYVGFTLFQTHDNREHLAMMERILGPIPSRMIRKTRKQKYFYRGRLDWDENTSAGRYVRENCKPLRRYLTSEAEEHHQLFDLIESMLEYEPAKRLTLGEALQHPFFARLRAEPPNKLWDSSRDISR
Chain of CHEK2 (CHK2) (O96017 whole entry): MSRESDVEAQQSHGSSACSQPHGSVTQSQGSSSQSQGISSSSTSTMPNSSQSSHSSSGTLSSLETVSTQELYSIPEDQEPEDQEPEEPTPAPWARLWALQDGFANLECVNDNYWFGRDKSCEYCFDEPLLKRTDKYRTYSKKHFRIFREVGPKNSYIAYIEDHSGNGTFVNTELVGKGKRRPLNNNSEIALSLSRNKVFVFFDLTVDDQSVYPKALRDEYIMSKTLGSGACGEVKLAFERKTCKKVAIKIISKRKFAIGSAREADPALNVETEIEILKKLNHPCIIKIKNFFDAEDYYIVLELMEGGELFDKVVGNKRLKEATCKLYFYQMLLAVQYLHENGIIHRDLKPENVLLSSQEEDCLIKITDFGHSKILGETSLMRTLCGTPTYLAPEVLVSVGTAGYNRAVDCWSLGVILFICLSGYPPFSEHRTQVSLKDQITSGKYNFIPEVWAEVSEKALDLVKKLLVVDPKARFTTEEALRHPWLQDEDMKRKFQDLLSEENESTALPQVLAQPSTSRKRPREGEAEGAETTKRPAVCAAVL

CC1(Oc2ccc3[nH]nc(-c4cc(N5CCOCC5)ncn4)c3c2)CC1 [Example 1]
percent inhibition CHEK2 (CHK2) (CHEK2 (CHK2)): 21% | percent inhibition CLK2 (CLK2): 57% | percent inhibition AURKB (Aurora B) (AURKB (Aurora B)): 28% | percent inhibition CDK1/cyclin B (CDK1/cyclin B): 10% | percent inhibition MAPK8 (JNK1) (MAPK8 (JNK1)): 56% | percent inhibition BRAF V599E (BRAF V599E): 24% | percent inhibition JAK3 (JAK3): 7% | percent inhibition IRAK1 (IRAK1): 23% | percent inhibition MAPK1 (ERK2) (MAPK1 (ERK2)): 8% | percent inhibition DYRK1A (DYRK1A): 16%

CO[C@H]1CCN(c2cc(-c3n[nH]c4ccc(OC5(C)CC5)cc34)ncn2)C1 [Example 12]
percent inhibition CHEK2 (CHK2) (CHEK2 (CHK2)): 17% | percent inhibition CLK2 (CLK2): 53% | percent inhibition AURKB (Aurora B) (AURKB (Aurora B)): 37% | percent inhibition CDK1/cyclin B (CDK1/cyclin B): 43% | percent inhibition MAPK8 (JNK1) (MAPK8 (JNK1)): 40% | percent inhibition BRAF V599E (BRAF V599E): 11% | percent inhibition JAK3 (JAK3): 12% | percent inhibition IRAK1 (IRAK1): 31% | percent inhibition MAPK1 (ERK2) (MAPK1 (ERK2)): 10% | percent inhibition DYRK1A (DYRK1A): 5%

C[C@@H]1CN(c2cc(-c3n[nH]c4ccc(OC5(C)CC5)cc34)ncn2)C[C@H](C)O1 [Example 51]
percent inhibition CHEK2 (CHK2) (CHEK2 (CHK2)): 15% | percent inhibition CLK2 (CLK2): 55% | percent inhibition AURKB (Aurora B) (AURKB (Aurora B)): 16% | percent inhibition CDK1/cyclin B (CDK1/cyclin B): 1% | percent inhibition MAPK8 (JNK1) (MAPK8 (JNK1)): 0% | percent inhibition BRAF V599E (BRAF V599E): 10% | percent inhibition JAK3 (JAK3): 7% | percent inhibition IRAK1 (IRAK1): −15% | percent inhibition MAPK1 (ERK2) (MAPK1 (ERK2)): −4% | percent inhibition DYRK1A (DYRK1A): 4%
